Reference: patent publication US5994365A, “Substituted diazaanthracene compounds having pharmaceutical utility” (Diazans Limited, priority 1998, dated 1999)
“And” between values parts separate entries of the source, which are not always exact repeats. Equal values may be shown once.

Assays:
Type in all cases: cell-based, Staphylococcus aureus
[1] = system: S. aureus ATCC 25923; test: Microbroth dilution assay of antimicrobial susceptibility (MIC); conditions: microdilution, CAMHB, 37° C., 18 hrs
Procedure: It is described below, using E. coli ATCC® 25922, S. aureus ATCC® 25923, and P. aeruginosa ATCC® 27853. Prepare 0.0128 g DAA in 10 mL dH2 O (or 95% EtOH, methanol or DMSO if H2 O insoluble)=1280 μg/mL (stock solution). Dilute DAA stock solution 1:10 with CAMHB (Cation-Adjusted Mueller Hinton Broth): 0.5 mL DAA stock solution+4.5 mL CAMHB=128 μg/mL (DAA working solution). Pipette 100 μl of sterile CAMHB per well into columns 2-12 of rows A-G using Eppendorf repeater pipette. Pipette 100 μl per well of sterile-filtered DAA working solution into columns 1 and 2 of rows A, C, E, G using Jensen electric pipette. Mix and transfer 100 μl from column 2 to 3 of rows A, C, E, G using Jensen pipette. Repeat to column 12 then discard 100 μl from column 12. Rows B, D and F are positive growth control lanes for each organism and contain only CAMHB and the organism--no DAA. Row H is the media additive control lane, if necessary (e.g. MeOH, EtOH, DMSO etc.). The concentration of the media additive is obtained by doing a 1:10 dilution of the additive with CAMHB (0.5 mL additive+4.5 mL CAMHB). Row G is considered to be "negative growth control" and is loaded with only CAMHB and the DAA. Inoculate 0.5 mL TSB (Trypticase Soy Broth) tubes with 3 single colonies each of E. coli, S. aureus, and P. Aeruginosa from TSA plates using sterile needle. Incubate @ 37° C. for 4-6 hr. Measure out 100 mL CAMHB using the sterile 100 mL volumetric flask. Pour the excess into a sterile reagent reservoir. Pipette 0.5 mL and discard, leaving 99.5 mL in each of the 3-Erlenmeyer flasks. Set aside. Use the excess CAMHB for the 1:10 dilution of inoculum: 0.5 mL inoculum+4.5 mL CAMHB. Perform a 1:200 dilution of inoculum: 0.5 mL of 1:10 diluted inoculum+99.5 mL CAMHB from previous step. Pipette 100 μl (using Eppendorf repeater pipette) E. coli into each well in columns 1-12 of rows A and B and columns 1-4 of row H (if media additive control lane necessary). Pipette 100 μl P. aeruginosa into each well in columns 1-12 of rows C and D and columns 5-8 of row H (if media additive control lane is necessary). Pipette 100 μl S. aureus into each well in columns 1-12 of rows E and F and columns 9-12 of row H (if media additive control lane is necessary). Incubate microtiter plates @ 37° C. for 18 hrs. The lowest concentration of antimicrobial agent that results in significant inhibition of visible growth represents the MIC (Minimal Inhibitory Concentration).

[2] = system: MRSA; test: Minimal bactericidal concentration (MBC), 99.9% kill; conditions: Table F
Procedure: (§1) Broth microdilution was performed according to NCCLS guidelines. Microdilution panels were prepared using doubling dilutions of the dimer in ~250 μl plastic, 96-well trays. Inoculum suspension equal to a 0.5 McFarland standard were further diluted and added to the microdilution trays to achieve a final inoculum of 5×10^5 CFU/ml (5×10^4 CFU/well). Colony counts were performed to confirm the final inoculum, as well as its purity. Each strain was also tested in a growth control well containing only MHB for viability.
Various isolates were also tested for minimal bactericidal concentration (MBC) (see Tables D and F).
Subbed 50 μl of ≤5 clear wells

[3] = system: Staph aureus; test: Broth microdilution (NCCLS guidelines), MIC; set-up: MICs: unit not given beside the values; conditions: for 1st MIC / 2nd MIC: Table B
Procedure: The dimer product of Example 15 was obtained in powder form. A stock solution of 1280 mg/L of the dimer in dimethylsulfoxide (DMSO) was prepared and stored at room temperature in a foil-wrapped screw-capped tube (10 ml). Subsequent dilutions were prepared using cation-adjusted Mueller-Hinton broth (50 mg/L Mg). […] It was resuspended upon mixing each time an aliquot was taken from the solution.
Approximately 100 varied bacterial isolates were initially collected for screening, along with 9 ATCC organisms. Forty additional strains of Staphylococcus species were subsequently screened. All isolates were identified according to generally accepted lab protocol.
as §1
Microdilution trays were incubated at 35° C. in ambient air or 5% CO2 as appropriate for 16-20 hours. After incubation, the minimal inhibitory concentration (MIC) was defined as the lowest concentration of the dimer with no evidence of growth. Since 10 or more strains of most organisms were tested; a range of MICs was determined for each organism, as well as the concentration of the dimer that inhibited 50% of the strains (MIC50) and the concentration of the dimer that inhibited 90% of the strains (MIC90).

[4] = strain S. aureus 1 (line under ATCC 25923)
[5] = Table C, Pip/Taz S. aureus, 10 strains, solution 14 days old
[6] = Table C, S. aureus, 10 strains, solution 14 days old
[7] = Table E, Pip/Taz SA, 10 strains, fresh solution
[8] = Table E, S. aureus, 10 strains, fresh solution
[9] = Table G, S. aureus (2nd clinical isolate collection), 10 strains
[10] = Table G, S. aureus (pip-tazo study), 10 strains

Q: For “10,10'-bis(3,6-dimethyl-5,10-dihydro-1,8-diazaanthracen-5-one) and 5,5'-bis(3,6-dimethyl-5,10-dihydro-1,8-diazaanthracen-10-one) [Example 15]”, which MIC [1] is on record?
A: Its MIC is 0.0625 µg/mL.

Q: And the MBC ([2]; MRSA 2)?
A: The MBC was 16 µg/mL.

Q: And the MBC ([2]; MRSA 4, skipped wells)?
A: Its MBC is over 16 µg/mL.

Q: What about the MBC ([2]; MRSA 6) of the same substance?
A: Its MBC is 2 µg/mL.

Q: And the MIC50 ([3]; Table A, 12 strains)?
A: Its MIC50 is 0.5 µg/mL.

Q: And the MIC90 ([3]; Table A, 12 strains)?
A: Its MIC90 is 1.0 µg/mL.

Q: What about the “Range of MICs” value ([3]; Table A, 12 strains) of the same substance?
A: The value was “.0625 to 1.0 mg/L”.

Q: What about the MIC ([3]; Table A, ATCC MSSA 25923) of the same substance?
A: The MIC was 0.0625 µg/mL.

Q: And the MIC ([3]; Table A, ATCC MSSA 29213)?
A: Its MIC is 1.0 µg/mL.

Q: What about the 1st MIC [3, 4] of the same substance?
A: The 1st MIC was 0.0625 µg/mL.

Q: And the 2nd MIC [3, 4]?
A: Its 2nd MIC is 0.0625 µg/mL.

Q: And the 1st MIC ([3]; strain S. aureus 2)?
A: The 1st MIC was 1 µg/mL.

Q: What about the 2nd MIC ([3]; strain S. aureus 2) of the same substance?
A: Its 2nd MIC is 1 µg/mL.

Q: And the 1st MIC ([3]; strain S. aureus 3)?
A: The 1st MIC was 0.5 µg/mL.

Q: What about the 2nd MIC ([3]; strain S. aureus 3) of the same substance?
A: The 2nd MIC was 0.125 µg/mL.

Q: And the 1st MIC ([3]; strain S. aureus 4)?
A: The 1st MIC was 1 µg/mL.

Q: What about the 2nd MIC ([3]; strain S. aureus 4) of the same substance?
A: The 2nd MIC was 1 µg/mL.

Q: What about the 1st MIC ([3]; strain S. aureus 5) of the same substance?
A: The 1st MIC was 1 µg/mL.

Q: What about the 1st MIC ([3]; strain S. aureus 6) of the same substance?
A: The 1st MIC was 0.125 µg/mL.

Q: And the 2nd MIC ([3]; strain S. aureus 6)?
A: The 2nd MIC was 0.25 µg/mL.

Q: And the 1st MIC ([3]; strain S. aureus 7)?
A: Its 1st MIC is 0.5 µg/mL.

Q: What about the 2nd MIC ([3]; strain S. aureus 7) of the same substance?
A: Its 2nd MIC is 0.5 µg/mL.

Q: What about the 1st MIC ([3]; strain S. aureus 8) of the same substance?
A: The 1st MIC was 0.5 µg/mL.

Q: And the 2nd MIC ([3]; strain S. aureus 8)?
A: Its 2nd MIC is 1 µg/mL.

Q: What about the MICs ([3]; Table C, ATCC MSSA 25923, solution 14 days old, listed as Dimer) of the same substance?
A: The MICs was 8 and > 16.

Q: And the MICs ([3]; Table C, ATCC MSSA 29213, solution 14 days old, listed as Dimer, in µg/mL)?
A: The MICs was 4 and 8.

Q: And the MIC50 [3, 5]?
A: Its MIC50 is 2 µg/mL.

Q: And the MIC90 [3, 5]?
A: Its MIC90 is 8 µg/mL.

Q: And the “Range of MICs” value ([3]; Table C, Pip/Taz S. aureus, 10 strains, solution 14 days old, in µg/mL)?
A: Its value is 2-16.

Q: What about the MIC50 [3, 6] of the same substance?
A: The MIC50 was 4 µg/mL.

Q: And the MIC90 [3, 6]?
A: Its MIC90 is 16 µg/mL.

Q: What about the “Range of MICs” value ([3]; Table C, S. aureus, 10 strains, solution 14 days old, in µg/mL) of the same substance?
A: Its value is 2-8.

Q: What about the MIC ([3]; Table D, S. aureus 1) of the same substance?
A: Its MIC is 2 µg/mL.

Q: What about the MIC ([3]; Table D, S. aureus 2) of the same substance?
A: The MIC was 16 µg/mL.

Q: What about the MIC ([3]; Table D, S. aureus 3) of the same substance?
A: The MIC was 8 µg/mL.

Q: What about the MIC ([3]; Table D, S. aureus 4) of the same substance?
A: Its MIC is 4 µg/mL.

Q: What about the MIC ([3]; Table D, S. aureus 5) of the same substance?
A: The MIC was 16 µg/mL.

Q: What about the MIC ([3]; Table D, S. aureus 6) of the same substance?
A: Its MIC is 2 µg/mL.

Q: What about the MIC ([3]; Table D, S. aureus 7) of the same substance?
A: Its MIC is 8 µg/mL.

Q: And the MIC ([3]; Table D, S. aureus 8)?
A: The MIC was 2 µg/mL.

Q: What about the MIC ([3]; Table D, S. aureus 9) of the same substance?
A: Its MIC is 2 µg/mL.

Q: What about the MIC ([3]; Table D, S. aureus 10) of the same substance?
A: Its MIC is 4 µg/mL.

Q: What about the MICs ([3]; Table E, ATCC MSSA 25923, fresh solution, listed as Dimer, in µg/mL) of the same substance?
A: Its MICs is 0.125 and 0.25.

Q: And the MICs ([3]; Table E, ATCC MSSA 29213 (×2), fresh solution, in µg/mL)?
A: Its MICs is 2.

Q: And the MIC50 [3, 7]?
A: Its MIC50 is 1 µg/mL.

Q: What about the MIC90 [3, 7] of the same substance?
A: Its MIC90 is 2 µg/mL.

Q: What about the “Range of MICs” value ([3]; Table E, Pip/Taz SA, 10 strains, fresh solution, in µg/mL) of the same substance?
A: The value was 0.25-2.

Q: What about the MIC50 [3, 8] of the same substance?
A: The MIC50 was 0.5 µg/mL.

Q: And the MIC90 [3, 8]?
A: The MIC90 was 1 µg/mL.

Q: What about the “Range of MICs” value ([3]; Table E, S. aureus, 10 strains, fresh solution, in µg/mL) of the same substance?
A: The value was 0.25-1.

Q: What about the MIC ([3]; Table F, ATCC S. aureus 25923) of the same substance?
A: The MIC was 0.25 µg/mL.

Q: And the MIC ([3]; Table F, ATCC S. aureus 29213)?
A: Its MIC is 2 µg/mL.

Q: And the MIC ([3]; Table F, Pip/Taz S. aureus 1)?
A: Its MIC is 2 µg/mL.

Q: What about the MIC ([3]; Table F, Pip/Taz S. aureus 3) of the same substance?
A: The MIC was 0.25 µg/mL.

Q: And the MIC ([3]; Table F, Pip/Taz S. aureus 7)?
A: The MIC was 1 µg/mL.

Q: What about the MIC ([3]; Table F, S. aureus 1) of the same substance?
A: Its MIC is 0.25 µg/mL.

Q: What about the MIC ([3]; Table F, S. aureus 2) of the same substance?
A: The MIC was 1 µg/mL.

Q: And the MIC ([3]; Table F, S. aureus 8)?
A: Its MIC is 0.5 µg/mL.

Q: And the MIC ([3]; Table G footnote, ATCC 25923, methicillin susceptible)?
A: The MIC was 0.25 µg/mL.

Q: What about the MIC ([3]; Table G footnote, ATCC 29213, methicillin susceptible) of the same substance?
A: Its MIC is 2 µg/mL.

Q: And the MIC50 [3, 9]?
A: The MIC50 was 0.5 µg/mL.

Q: And the MIC90 [3, 9]?
A: Its MIC90 is 1 µg/mL.

Q: And the “Range of MICs” value [3, 9]?
A: Its value is 0.25 to 1 mg/L.

Q: What about the MIC50 [3, 10] of the same substance?
A: Its MIC50 is 1 µg/mL.

Q: And the MIC90 [3, 10]?
A: The MIC90 was 2 µg/mL.

Q: And the “Range of MICs” value [3, 10]?
A: Its value is 0.25 to 2 mg/L.
